{"source": "patent US20230190793A1", "about": "“Pharmaceutical Preparation for Use in the Treatment of Systemic Inflammatory Response Syndrome (SIRS)” (priority 2020, published 2023)", "origin": "cited, not measured here"}
{"compound": "[O-][Cl+2]([O-])O", "note": "[chloric acid]", "Acid dissociation constant as pKa at 298 K": 0}
{"compound": "OCl", "note": "[hypochlorous acid]", "Acid dissociation constant as pKa at 298 K": 7.25}
{"compound": "peroxochloric acid", "Acid dissociation constant as pKa at 298 K": "approx. 6.2"}
